# Experimental data from publication PMC9495826, “Membranolytic Mechanism of Amphiphilic Antimicrobial β-Stranded [KL]n Peptides” (Biomedicines, 2022).
# Read-outs that look alike come from different tables or passages of the source. No end group written: not given here.
# Columns and labels:
# erythrocytes [1] = assay: Hemolysis assay; type: cell-based
# [2] = test system: Bacillus subtilis (DSM 347); type: cell-based
# Method: (§1) The antimicrobial activity of the KL peptides was determined with a MIC assay. Peptide activity was tested against Gram-negative Escherichia coli (DSM 1116) and Enterobacter helveticus (DSM 18390) and against Gram-positive Bacillus subtilis (DSM 347) and Staphylococcus xylosus (DSM 20287) as previously reported. Our standard MIC assay was modified to avoid unnecessary exposure of peptides to the phosphate-containing growth medium, which was previously found to affect the results due to phosphate-induced aggregation of peptides. Details can be found in the Supplementary Materials.
# (§2) The activity of KL and LK peptides against bacteria was examined using a MIC assay. […] We have previously shown that KL peptides, especially the longer ones, aggregate vigorously in the presence of phosphate ions. […] Therefore, here we used a modified MIC assay that was developed in our previous study, as described in the Methods section. In this approach, a two-fold dilution series was first prepared with peptides dissolved in water, and only thereafter were the bacteria in the medium added so that the peptides were simultaneously exposed to bacteria and phosphate-containing medium.
# (§3) 1.3 MIC (minimum inhibitory concentration) assay
# (§4) Antimicrobial activity was measured by a minimal inhibitory concentration (MIC) assay, carried out with Gram-positive Bacillus subtilis (DSM 347) and Staphylococcus xylosus (DSM 20287) and with Gram-negative Escherichia coli (DSM 1116) and Enterobacter helvet-icus (DSM 18390). Bacteria were grown in Müller-Hinton medium at 37°C overnight. Bac-terial solutions with OD550 = 0.2 was further diluted 1:100 for Gram-positive and 1:1000 for Gram-negative bacteria to get a concentration of […] colony forming units (CFU)/mL. Mi-crotiter plates (96 wells of 100 μL) were filled peptide solution to obtain serial 2-fold dilu-tion series of peptides. 50 µL of pure water was first added to each well. To the first well 50 µL peptide solution was added, after mixing 50 µL of this was transferred to the second well and so on. After all plates were prepared, 50 µL bacterial solution in double-concen-tration MHM was added to the wells (except for the final row of each plate) to give a final concentration of 5 × 10^5 CFU/mL in the wells. Thus, peptides got in contact with phosphate and bacteria simultaneously. […]
# (§5) gregate stronlgy in contact with the phosphate containing growth medium. The two final rows of each plate remained without peptide, so that the penultimate data point served as the positive co ntrol (no peptide), and the final one as the negative control (not inoculated). The plates were incubated at 37°C for 20 h, and cell viability was probed by addition of 20 µL 0.2 mg/mL resazurin and incubation at 37°C for 2 h. The MIC value was determined visually as the lowest peptide concentration inhibiting bacterial growth. […]
# (§6) Unencapsulated dye was removed by gel filtration using spin columns filled with Sephacryl 100-HR (Sigma-Aldrich, Taufkirchen, Germany), and equilibrated with an elu-tion buffer (150 mM NaCl, 10 mM HEPES, pH 7.5), which balances the internal vesicle
# [3] = test system: Enterobacter helveticus (DSM 18390); type: cell-based
# Method: as §1, §2, §3, §4, §5, §6
# [4] = test system: Escherichia coli (DSM 1116); type: cell-based
# Method: as §1, §2, §3, §4, §5, §6
# [5] = test system: Staphylococcus xylosus (DSM 20287); type: cell-based
# Method: as §1, §2, §3, §4, §5, §6
# erythrocytes [6] = conditions: cited from earlier work
# Source text: (§7) Many natural and man-made AMPs are cationic and fold into simple amphiphilic α-helices. Much fewer examples exist of another fundamental type of secondary structure, namely amphiphilic β-strands. A classic model sequence, [KIGAKI]3-NH2, had been designed from alternating polar and hydrophobic side chains. Recently, we presented an even simpler group of so-called KL peptides, consisting of the alternating (lysine-leucine) dipeptide repeat: [KL]n-NH2. Recently, four KLx peptides of different lengths (x = number of residues, x = 2n) with 6–18 amino acids were compared in terms of ...
# four bacterial strains [7] = conditions: earlier study; ref [15]; cited from earlier work
# Source text: as §7
# four bacterial strains [8] = assay: MIC assay, overall statement for the four strains; type: cell-based, E. coli, E. helveticus, B. subtilis, S. xylosus; conditions: modified MIC assay
# Method: as §1
# The activity of KL and LK peptides against bacteria was examined using a MIC assay. […] We have previously shown that KL peptides, especially the longer ones, aggregate vigorously in the presence of phosphate ions. […] Therefore, here we used a modified MIC assay that was developed in our previous study, as described in the Methods section. […]
# Antimicrobial activity was measured by a minimal inhibitory concentration (MIC) assay, carried out with Gram-positive Bacillus subtilis (DSM 347) and Staphylococcus xylosus (DSM 20287) and with Gram-negative Escherichia coli (DSM 1116) and Enterobacter helvet-icus (DSM 18390). […]
# gregate stronlgy in contact with the phosphate containing growth medium. […] The MIC value was determined visually as the lowest peptide concentration inhibiting bacterial growth. […]
# [9] = Gram-positive, modified MIC: 2-fold dilution series of peptide in water, then bacteria in double-concentration Müller-Hinton medium, 5 × 10^5 CFU/mL, 37°C 20 h, resazurin, visual
# [10] = Gram-negative, modified MIC: 2-fold dilution series of peptide in water, then bacteria in double-concentration Müller-Hinton medium, 5 × 10^5 CFU/mL, 37°C 20 h, resazurin, visual
Substance,Hemolysis HC50 (concentration of peptide giving 50% hemolysis) (erythrocytes [1]; 20 h) [µg/mL],"MIC B. subtilis ([2]; DSM 347, 20 h) [mg/L]","MIC E. helveticus ([3]; DSM 18390, 20 h) [mg/L]","MIC E. coli ([4]; DSM 1116, 20 h) [mg/L]","MIC S. xylosus ([5]; DSM 20287, 20 h) [mg/L]",also measured
KLKLKLKLKLKLKLKLKLKLKLKL-NH2 [KL24],<1,32,16,32,8,
LKLKLKLKLKLKL-NH2 [LK13],2,8,4,8,4,
KLKLKL-NH2 [KL6],>256,>256,128,>256,256,Hemolytic activity (in words) (erythrocytes [1]): very low hemolytic activity
KLKLKLKLKLKL-NH2 [KL12],8,2,2,2,2,
KLKLKLKLKLKLK-NH2 [KL13],9,2,1,2,1,
KLKLKLKLK-NH2 [KL9],>256,16,8,32,2,"Hemolysis (erythrocytes [1]; 20 h, 1 µg/mL): 5%; Hemolysis (erythrocytes [1]; 20 h, 2 µg/mL): 6%; Hemolysis (erythrocytes [1]; 20 h, 4 µg/mL): 8%; Hemolysis (erythrocytes [1]; 20 h, 8 µg/mL): 9%; Hemolysis (erythrocytes [1]; 20 h, 16 µg/mL): 9%; Hemolysis (erythrocytes [1]; 20 h, 32 µg/mL): 11%; Hemolysis (erythrocytes [1]; 20 h, 64 µg/mL): 14%; Hemolysis (erythrocytes [1]; 20 h, 128 µg/mL): 18%; Hemolysis (erythrocytes [1]; 20 h, 256 µg/mL): 20%; Hemolytic activity (in words) (erythrocytes [1]; erythrocytes, 37°C 30 min): very low hemolytic activity"
LKLKLKLKLKL-NH2 [LK11],3,2,1,2,1,
LKLKLKLKL-NH2 [LK9],145,4,4,16,2,
LKLKLKLKLK-NH2 [LK10],256,4,2,8,1,
LKLKLKLKLKLKLKL-NH2 [LK15],<1,16,16,64,16,
KLKLKLKLKLKLKLK-NH2 [KL15],2,4,2,8,2,
KLKLKLKLKLKLKLKLKLKLKL-NH2 [KL22],<1,32,32,32,16,
KLKLKLKLKLKLKLKLKLKL-NH2 [KL20],<1,32,32,32,16,
KLKLKLKLKLKLKLKLKL-NH2 [KL18],1,32,16,32,8,Hemolytic activity (in words) (erythrocytes [6]): highly hemolytic
KLKLKLKLKLKLKLKL-NH2 [KL16],2,16,8,32,8,
KLKLKLKLKL-NH2 [KL10],47,2,2,4,2,"Hemolytic activity (in words) (erythrocytes [1]): considerably more hemolytic than LK10; Antimicrobial effect (in words) (four bacterial strains [7]): better antimicrobial effect than KL6, KL14 or KL18; Antimicrobial activity (in words) (four bacterial strains [8]): highest activity"
KLKLKLKL-NH2 [KL8],>256,16,16,64,8,Hemolytic activity (in words) (erythrocytes [1]): very low hemolytic activity
KLKLKLKLKLKLKL-NH2 [KL14],1,4,4,8,4,Hemolytic activity (in words) (erythrocytes [6]): highly hemolytic
KLKLKLKLKLK-NH2 [KL11],>256,4,2,4,1,Hemolytic activity (in words) (erythrocytes [1]): very low hemolytic activity
KLKLKLKLKLKLKLKLKLKLKLKLKL-NH2 [KL26],,,,,,"Hemolysis HC50 (concentration of peptide giving 50% hemolysis) (erythrocytes [1]; interpolated from concentration-dependent curves, washed erythrocytes of healthy donors, 37°C 30 min, absorbance 540 nm, 100% = 1% Triton X-100): <1 µg/mL; Hemolysis (erythrocytes [1]; peptide 1 µg/mL, erythrocytes of healthy donors, 37°C 30 min, A540, relative to Triton-X 100%, average of three absorbance measurements): 52%; Hemolysis (erythrocytes [1]; peptide 2 µg/mL, erythrocytes of healthy donors, 37°C 30 min, A540, relative to Triton-X 100%, average of three absorbance measurements): 71%; Hemolysis (erythrocytes [1]; peptide 4 µg/mL, erythrocytes of healthy donors, 37°C 30 min, A540, relative to Triton-X 100%, average of three absorbance measurements): 72%; Hemolysis (erythrocytes [1]; peptide 8 µg/mL, erythrocytes of healthy donors, 37°C 30 min, A540, relative to Triton-X 100%, average of three absorbance measurements): 72%; Hemolysis (erythrocytes [1]; peptide 16 µg/mL, erythrocytes of healthy donors, 37°C 30 min, A540, relative to Triton-X 100%, average of three absorbance measurements): 56%; Hemolysis (erythrocytes [1]; peptide 32 µg/mL, erythrocytes of healthy donors, 37°C 30 min, A540, relative to Triton-X 100%, average of three absorbance measurements): 50%; Hemolysis (erythrocytes [1]; peptide 64 µg/mL, erythrocytes of healthy donors, 37°C 30 min, A540, relative to Triton-X 100%, average of three absorbance measurements): 47%; Hemolysis (erythrocytes [1]; peptide 128 µg/mL, erythrocytes of healthy donors, 37°C 30 min, A540, relative to Triton-X 100%, average of three absorbance measurements): 42%; Hemolysis (erythrocytes [1]; peptide 256 µg/mL, erythrocytes of healthy donors, 37°C 30 min, A540, relative to Triton-X 100%, average of three absorbance measurements): 39%; MIC B. subtilis [2, 9]: 32 mg/L; MIC E. helveticus [3, 10]: 16 mg/L; MIC E. coli [4, 10]: 64 mg/L; MIC S. xylosus [5, 9]: 16 mg/L"
